For assay [1], the target named is Cruzipain (Trypanosoma cruzi, UniProt P25779). The assay can be described thus: Inhibition of Trypanosoma cruzi recombinant cruzain by fluorescence technique.
The target in assay [2] is Rhodesain (Trypanosoma brucei rhodesiense, UniProt Q95PM0). The assay can be described thus: Inhibition of Trypanosoma brucei rhodesiense recombinant rhodesain by fluorescence technique.
Rhodesain, sequence (Q95PM0 whole entry): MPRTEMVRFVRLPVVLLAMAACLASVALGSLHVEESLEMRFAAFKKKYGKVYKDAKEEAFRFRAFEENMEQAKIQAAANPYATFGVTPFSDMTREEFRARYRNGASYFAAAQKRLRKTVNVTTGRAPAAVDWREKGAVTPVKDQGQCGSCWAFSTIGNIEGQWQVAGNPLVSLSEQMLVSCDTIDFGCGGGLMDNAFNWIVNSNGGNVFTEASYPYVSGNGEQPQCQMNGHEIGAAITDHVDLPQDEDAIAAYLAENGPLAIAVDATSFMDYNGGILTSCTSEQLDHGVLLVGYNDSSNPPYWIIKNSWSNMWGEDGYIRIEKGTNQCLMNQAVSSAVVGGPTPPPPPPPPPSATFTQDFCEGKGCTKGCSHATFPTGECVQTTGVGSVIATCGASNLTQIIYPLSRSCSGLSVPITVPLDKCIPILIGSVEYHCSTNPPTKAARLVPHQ

Cruzipain, sequence (P25779 whole entry): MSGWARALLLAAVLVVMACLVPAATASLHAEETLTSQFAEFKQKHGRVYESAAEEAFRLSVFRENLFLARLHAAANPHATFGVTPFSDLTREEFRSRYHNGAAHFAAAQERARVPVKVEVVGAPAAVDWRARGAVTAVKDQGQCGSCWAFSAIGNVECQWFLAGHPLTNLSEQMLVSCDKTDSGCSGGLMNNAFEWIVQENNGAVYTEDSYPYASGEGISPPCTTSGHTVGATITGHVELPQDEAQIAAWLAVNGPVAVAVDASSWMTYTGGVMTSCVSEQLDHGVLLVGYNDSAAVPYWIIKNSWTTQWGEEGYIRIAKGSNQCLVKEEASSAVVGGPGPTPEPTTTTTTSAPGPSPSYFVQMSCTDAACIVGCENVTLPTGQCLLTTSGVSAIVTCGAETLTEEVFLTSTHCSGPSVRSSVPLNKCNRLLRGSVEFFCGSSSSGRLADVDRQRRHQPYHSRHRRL

Take `CC(C)C[C@@H]1N[C@@H](C(=O)Nc2ccccc2)CCCC[C@@H](/C=C/S(=O)(=O)c2ccccc2)NC1=O`: the IC50 was above 10 µM in assay [1] and 10 µM in assay [2].

Take `CC(C)C[C@@H]1N[C@@H](C(=O)Nc2ccccc2)CCCCC[C@@H](/C=C/S(=O)(=O)c2ccccc2)NC1=O`: the IC50 in assay [1] was 2 µM; in assay [2], 6 µM.

The term IC50 denotes the concentration that inhibits the measured activity by half.

Source of the values: ChEMBL document CHEMBL1151778, “Synthesis of macrocyclic trypanosomal cysteine protease inhibitors” (Bioorg Med Chem Lett, 2008).
